According to ChEMBL document CHEMBL5532759, “Discovery of dibenzylbutane lignan LCA derivatives as potent anti-inflammatory agents” (RSC Med Chem, 2024):
Active and inactive are the calls of the source. The rule behind the calls is not given here.

How the values were obtained:
[1] = Cytotoxicity against mouse RAW264.7 cells assessed as survival rate at 20 uM incubated for 24 hrs by CCK-8 assay relative to control (reference value: 100 %); format: toxicity, cell-based; details: read-out: Survival
[2] = tested on: RAW264.7; assay: Antiinflammatory activity in LPS-induced mouse RAW264.7 cells assessed as inhibition of NO release at 20 uM preincubated for 4 hrs followed by LPS addition for 24 hrs by Griess reagent based assay relative to control (reference value: 100 %); format: functional; set-up: scale not given: the % may be the effect or the level left; details: time 28 hrs
[3] = tested on: RAW264.7; assay: Antiinflammatory activity in LPS-induced mouse RAW264.7 cells assessed as inhibition of NO release preincubated for 4 hrs followed by LPS addition for 24 hrs by Griess reagent based assay; format: functional, cell-based; details: dose 2.5-20 µM, time 28.0 hrs
[4] = tested on: Mus musculus; assay: Antiinflammatory activity against carrageenan-induced paw edema in ICR mouse assessed as inhibition of paw swelling at 20 mg/kg, ip measured after 120 min; format: functional, organism-based
[5] = tested on: Mus musculus; assay: Antiinflammatory activity against carrageenan-induced paw edema in ICR mouse assessed as reduction in paw thickness at 20 mg/kg, ip measured at 60 to 240 mins; format: functional, organism-based; details: time 60-240 min
[6] = tested on: Mus musculus; assay: Antiinflammatory activity against carrageenan-induced paw edema in ICR mouse assessed as inhibition of paw swelling at 5 to 20 mg/kg, ip measured after 120 min; format: functional, organism-based; details: dose 5-20 mg/kg
[7] = tested on: Mus musculus; assay: Antiinflammatory activity against carrageenan-induced paw edema in ip dosed ICR mouse assessed as reduction in IL-1beta level by ELISA method; format: functional, organism-based; details: dose 5-20 mg/kg
[8] = tested on: RAW264.7; assay: Antiinflammatory activity in LPS-induced mouse RAW264.7 cells assessed as inhibition of IL-6 secretion at 2.5 to 20 uM preincubated for 1 hr followed by LPS addition for 24 hrs by ELISA method; format: functional, cell-based; details: dose 2.5-20 µM, time 25.0 hrs
[9] = tested on: RAW264.7; assay: Antiinflammatory activity in LPS-induced mouse RAW264.7 cells assessed as reduction in IL-6 mRNA level preincubated for 1 hr followed by LPS addition for 24 hrs by RT-qPCR analysis; format: functional, cell-based; details: dose 10-20 µM, time 25.0 hrs
[10] = tested on: RAW264.7; assay: Antiinflammatory activity in LPS-induced mouse RAW264.7 cells assessed as reduction in TNFalpha mRNA level incubated for 1 hr followed by LPS addition for 24 hrs by RT-qPCR analysis; format: functional, cell-based; details: dose 10-20 µM, time 25.0 hrs
[11] = tested on: RAW264.7; assay: Antiinflammatory activity in LPS-induced mouse RAW264.7 cells assessed as inhibition of TNFalpha secretion at 2.5 to 20 uM preincubated for 1 hr followed by LPS addition for 24 hrs by ELISA method; format: functional, cell-based; details: dose 2.5-20 µM, time 25.0 hrs
[12] = tested on: RAW264.7; assay: Inhibition of NF-kappaB signaling in LPS-induced mouse RAW264.7 cells assessed as reduction in IkBalpha degradation preincubated for 1 hr followed by LPS addition for 1 hr by Western blot analysis; format: cell-based; details: dose 10-20 µM, time 2.0 hrs
[13] = tested on: Mus musculus; assay: Antiinflammatory activity against carrageenan-induced paw edema in ip dosed ICR mouse assessed as reduction in TNF-alpha level by ELISA method; format: functional, organism-based; details: dose 5-20 mg/kg
[14] = tested on: RAW264.7; assay: Inhibition of NF-kB p65 nuclear translocation from cytoplasm to nucleus in mouse RAW264.7 cells at 20 uM preincubated for 1 hr followed by LPS addition for 4 hrs by immunofluorescence assay; format: functional, cell-based; details: time 5.0 hrs
[15] = tested on: Mus musculus; assay: Antiinflammatory activity against carrageenan-induced paw edema in ICR mouse assessed as reduction in paw thickness at 5 to 20 mg/kg, ip measured at 60 to 240 mins; format: functional, organism-based; details: dose 5-20 mg/kg, time 60-240 min
[16] = tested on: RAW264.7; assay: Antiinflammatory activity in LPS-induced mouse RAW264.7 cells assessed as inhibition of IL-1beta secretion at 2.5 to 20 uM preincubated for 1 hr followed by LPS addition for 24 hrs by ELISA method; format: functional, cell-based; details: dose 2.5-20 µM, time 25.0 hrs
[17] = tested on: RAW264.7; assay: Inhibition of NF-kB signaling in LPS-induced mouse RAW264.7 cells assessed as reduction in p65 phosphorylation preincubated for 1 hr followed by LPS addition for 1 hr by Western blot analysis; format: cell-based; details: dose 10-20 µM, time 2.0 hrs
[18] = tested on: RAW264.7; assay: Antiinflammatory activity in LPS-induced mouse RAW264.7 cells assessed as reduction in IL-1beta mRNA level preincubated for 1 hr followed by LPS addition for 24 hrs by RT-qPCR analysis; format: functional, cell-based; details: dose 10-20 µM, time 25.0 hrs
[19] = tested on: Mus musculus; assay: Antiinflammatory activity against carrageenan-induced paw edema in ip dosed ICR mouse assessed as reduction in IL-6 level by ELISA method; format: functional, organism-based; details: dose 5-20 mg/kg

| Structure (SMILES) | viability at 24 h, 20 µM [1] | Activity [2] | other results |
| --- | --- | --- | --- |
| COc1cc(CNC(=O)[C@@H](Cc2cc(OC)c(O)c(OC)c2)[C@@H](Cc2cc(OC)c(O)c(OC)c2)C(=O)NCc2cc(OC)cc(OC)c2)cc(OC)c1 | 99.1% | 49.3% |  |
| COc1cc(/C=C/C(=O)OC[C@H](Cc2cc(OC)c(O)c(OC)c2)[C@@H](COC(=O)/C=C/c2ccc(O)c(OC)c2)Cc2cc(OC)c(O)c(OC)c2)ccc1O | 82.2% | 29.5% | inhibition [3]: Dose-Dependent Effect; inhibition [4]: Active; Activity [5]: Active |
| COc1ccc(CNC(=O)[C@@H](Cc2cc(OC)c(O)c(OC)c2)[C@@H](Cc2cc(OC)c(O)c(OC)c2)C(=O)NCc2ccc(OC)cc2)cc1 | 99.9% | 45.9% |  |
| COc1cc(C[C@H](C(=O)NCc2ccncc2F)[C@@H](Cc2cc(OC)c(O)c(OC)c2)C(=O)NCc2ccncc2F)cc(OC)c1O | 95.9% | 67.9% |  |
| COc1cc(C[C@H](C(=O)NCc2ccncc2)[C@@H](Cc2cc(OC)c(O)c(OC)c2)C(=O)NCc2ccncc2)cc(OC)c1O | 69.5% | 46.5% |  |
| COc1cc(C[C@H](C(=O)NCc2cccc(C)n2)[C@@H](Cc2cc(OC)c(O)c(OC)c2)C(=O)NCc2cccc(C)n2)cc(OC)c1O | 93.3% | 44.7% |  |
| COc1cc(C[C@H](C(=O)NCc2ccccc2F)[C@@H](Cc2cc(OC)c(O)c(OC)c2)C(=O)NCc2ccccc2F)cc(OC)c1O | 105% | 47.3% |  |
| COc1cc(C[C@H](C(=O)NCc2cccnc2OC)[C@@H](Cc2cc(OC)c(O)c(OC)c2)C(=O)NCc2cccnc2OC)cc(OC)c1O | 69.9% | 51.1% |  |
| COc1cc(C[C@H](C(=O)NCc2cc(C)ccn2)[C@@H](Cc2cc(OC)c(O)c(OC)c2)C(=O)NCc2cc(C)ccn2)cc(OC)c1O | 83% | 71.5% |  |
| COc1cc(C[C@H](C(=O)NCc2cccnc2C(F)(F)F)[C@@H](Cc2cc(OC)c(O)c(OC)c2)C(=O)NCc2cccnc2C(F)(F)F)cc(OC)c1O | 90.7% | 55.1% |  |
| COc1cccc(CNC(=O)[C@@H](Cc2cc(OC)c(O)c(OC)c2)[C@@H](Cc2cc(OC)c(O)c(OC)c2)C(=O)NCc2cccc(OC)c2)c1 | 100% | 44.2% |  |
| COc1cc(C[C@H](C(=O)NCc2ccc(F)cc2)[C@@H](Cc2cc(OC)c(O)c(OC)c2)C(=O)NCc2ccc(F)cc2)cc(OC)c1O | 103% | 43.1% |  |
| C[C@@H]1C[C@H]2[C@@H]3CCC4=CC(=O)C=C[C@]4(C)[C@@]3(F)[C@@H](O)C[C@]2(C)[C@@]1(O)C(=O)CO [DEXAMETHASONE] | 94.8% | 45.9% |  |
| COc1cc(C[C@H](C(=O)NCc2ccccn2)[C@@H](Cc2cc(OC)c(O)c(OC)c2)C(=O)NCc2ccccn2)cc(OC)c1O | 92.2% | 48.1% |  |
| COc1cc(C[C@H](C(=O)NCc2cc(F)cc(F)c2)[C@@H](Cc2cc(OC)c(O)c(OC)c2)C(=O)NCc2cc(F)cc(F)c2)cc(OC)c1O | 97.8% | 43.9% |  |
| COc1cc(C[C@H](C(=O)NCc2ccc(F)cn2)[C@@H](Cc2cc(OC)c(O)c(OC)c2)C(=O)NCc2ccc(F)cn2)cc(OC)c1O | 81.3% | 47.1% |  |
| COc1ccc(CNC(=O)[C@@H](Cc2cc(OC)c(O)c(OC)c2)[C@@H](Cc2cc(OC)c(O)c(OC)c2)C(=O)NCc2ccc(OC)cc2OC)c(OC)c1 | 98.4% | 47.6% |  |
| COc1cc(C[C@H](C(=O)NCc2ncccc2C)[C@@H](Cc2cc(OC)c(O)c(OC)c2)C(=O)NCc2ncccc2C)cc(OC)c1O | 85.1% | 66.3% |  |
| COc1cc(C[C@H](C(=O)NCc2ccc(C(F)(F)F)cc2)[C@@H](Cc2cc(OC)c(O)c(OC)c2)C(=O)NCc2ccc(C(F)(F)F)cc2)cc(OC)c1O | 99.1% | 31.1% | inhibition [6]: Active; Activity [7]: Dose-Dependent Effect; Activity [3]: Dose-Dependent Effect; Activity [8]: Active; Activity [9]: Dose-Dependent Effect; Activity [10]: Dose-Dependent Effect; Activity [11]: Active; inhibition [12]: Dose-Dependent Effect; Activity [13]: Dose-Dependent Effect; inhibition [14]: Active; Activity [15]: Active; Activity [16]: Active; inhibition [17]: Dose-Dependent Effect; Activity [18]: Dose-Dependent Effect; Activity [19]: Dose-Dependent Effect |
| COc1cc(C[C@H](C(=O)NCc2ccc(C)cc2)[C@@H](Cc2cc(OC)c(O)c(OC)c2)C(=O)NCc2ccc(C)cc2)cc(OC)c1O | 95.6% | 47% |  |
| COc1cc(C[C@H](C(=O)NCc2ccc(F)cc2F)[C@@H](Cc2cc(OC)c(O)c(OC)c2)C(=O)NCc2ccc(F)cc2F)cc(OC)c1O | 97.5% | 46.5% |  |
| COc1cc(C[C@H](C(=O)NCc2ccc(S(C)(=O)=O)cc2)[C@@H](Cc2cc(OC)c(O)c(OC)c2)C(=O)NCc2ccc(S(C)(=O)=O)cc2)cc(OC)c1O | 70% | 63.1% |  |
| COc1cc(C[C@H](C(=O)NCc2cccc(F)c2)[C@@H](Cc2cc(OC)c(O)c(OC)c2)C(=O)NCc2cccc(F)c2)cc(OC)c1O | 99.4% | 41.9% |  |
| COc1cc(C[C@H](C(=O)NCc2ccccc2)[C@@H](Cc2cc(OC)c(O)c(OC)c2)C(=O)NCc2ccccc2)cc(OC)c1O | 103% | 42.6% |  |
| COc1cc(CNC(=O)[C@@H](Cc2cc(OC)c(O)c(OC)c2)[C@@H](Cc2cc(OC)c(O)c(OC)c2)C(=O)NCc2ccc(O)c(OC)c2)ccc1O | 96.6% | 49% |  |
